From US9096571B2, “Picolinamide and pyrimidine-4-carboxamide compounds, process for preparing and pharmaceutical composition comprising the same” (SK CHEMICALS CO., LTD., priority 2010, dated 2015)

What was measured:
[1] = molecular target: T1, human-derived 11β-HSD1 (h11β-HSD1) enzyme (Homo sapiens, UniProt P28845); assay: Cell assay on 11β-HSD1 (HEK-293 cells overexpressing h11β-HSD1, cortisone to cortisol, cortisol ELISA); assay type: cell-based; settings: HEK293, HEK-293 cells transfected with h11β-HSD1; for inhibition at 10 µM: 10 μM compound, read-out: hHSD1 inhibiting activity, % inhibition at 10 μM; for inhibition at 100 µM: 100 μM compound, read-out: hHSD1 inhibiting activity, % inhibition at 100 μM
T1 construct: expressed in transfected cells; host or cells: HEK-293 cells, transfected with Fugene 6
T1 sequence (P28845 whole entry): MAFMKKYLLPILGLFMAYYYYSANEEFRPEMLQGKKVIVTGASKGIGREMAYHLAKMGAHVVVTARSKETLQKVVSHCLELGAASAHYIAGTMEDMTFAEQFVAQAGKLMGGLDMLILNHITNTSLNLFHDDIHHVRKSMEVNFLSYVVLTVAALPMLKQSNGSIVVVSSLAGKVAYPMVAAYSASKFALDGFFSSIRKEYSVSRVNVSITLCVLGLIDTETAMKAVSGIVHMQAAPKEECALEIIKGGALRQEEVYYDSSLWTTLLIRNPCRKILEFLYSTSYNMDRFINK
Method: In order to investigate inhibitory effects of the compounds according to the present invention on activity of human-derived 11β-HSD1 (h11β-HSD1) enzyme, the following experiment was performed.
To assay the activity of the 11β-HSD1 enzyme, a recombinant DNA having h11β-HSD1 gene was introduced into an animal cell to induce overexpression of the enzyme [Arampatzis, S. J Mol. Endocrinol. […] First, HEK-293 cells were incubated using a cell incubator until they reached 70-80% confluency on a surface of the container. The recombinant DNA having h11β-HSD1 gene was mixed with Fugene 6, followed by reaction at room temperature for 1 hour. The resulting material was used to treat the cells, and thus DNA was injected into the cells. The next day, the cell supernatant was removed, followed by supplement of fresh medium, and then the cells were further incubated for 24 hours in the cell incubator.
When the cells were incubated at 70-80% confluency, the cells were detached with trypsin, and the number of cells was measured by using a Hemacytometer. The incubated liquid was diluted to contain 20,000 cells/ml, and 100 μl of the diluted liquid was plated onto each well of the 96-well plate. Following incubation for 24 hours, the compound dissolved in DMSO was diluted to 1/100 by the incubated liquid. 100 μl of the resulting compound-diluted liquid was dispensed into each well, and then incubated for 30 minutes.
The quantitative assay of cortisol generated in this reaction was performed by using a system provided from Assay Designs Inc. The resultant enzyme reactant was added to the plate coated with anti-mouse IgG, and then a specific antibody binding to the cortisol and alkaline phosphatase-bound cortisol are together input thereto, followed by reaction at room temperature for 2 hours. The contents in the wells after reaction were thrown away, and then washing was performed with a buffer solution consisting of surfactant and tris-buffered saline three times. After that, a p-nitrophenyl phosphate solution, which is a substrate for the alkaline phosphatase, was input thereto for coloring reaction, followed by reaction for 1 hour, and then the light absorbance at 405 nm was measured by using a plate reader.

11β-HSD1 = molecular target: T2, 11β-HSD1 (Homo sapiens, UniProt P28845); settings: healthy candidates and type 2 diabetic patients, but not the obese; cited from earlier work
T2 construct: host or cells: human subjects in vivo
T2 sequence (P28845 whole entry): as above

| Structure (SMILES) | inhibition at 10 µM [1] | inhibition at 100 µM [1] | effect on insulin sensitivity (11β-HSD1) |
| --- | --- | --- | --- |
| CC1CCCCN1c1cccc(C(=O)N[C@H]2C3CC4CC2C[C@](O)(C4)C3)n1 (stereo partly drawn) [Example 61] | 68% | 83% |  |
| O=C(N[C@H]1C2CC3CC1C[C@](O)(C3)C2)c1cccc(N2CCc3ccccc3C2)n1 [Example 60] | 68% | 82% |  |
| O=C(N[C@H]1C2CC3CC1C[C@](O)(C3)C2)c1cccc(N2CCN(c3ccc(F)cn3)CC2)n1 [Example 87] | 40% | 79% |  |
| C[C@@H]1CN(CC(C)(C)O)CCN1c1cccc(C(=O)N[C@H]2C3CC4CC2C[C@](O)(C4)C3)n1 [Example 192, 6-((R)-4-(2-hydroxy-2-methylpropyl)-2-methylpiperazin-1-yl)-N-((E)-5-hydroxyadamantan-2-yl)picolinamide] | 41% | 85% |  |
| Cc1ccc(C2CCN(c3cccc(C(=O)N[C@H]4C5CC6CC4C[C@](O)(C6)C5)n3)CC2)nc1 [Example 98] | 38% | 78% |  |
| O=C(N[C@H]1C2CC3CC1C[C@](O)(C3)C2)c1cccc(N2CCC(c3ccccc3)CC2)n1 [Example 47] | 36% | 96% |  |
| O=C(N[C@H]1C2CC3CC1C[C@](O)(C3)C2)c1cccc(N2CCC(c3ccc(F)cn3)CC2)n1 [Example 97] | 58% | 77% |  |
| Cc1ccc(N2CCN(c3cccc(C(=O)N[C@H]4C5CC6CC4C[C@](O)(C6)C5)n3)CC2)nc1 [Example 88] | 40% | 84% |  |
| C[C@@H]1CN(C2CCN(S(C)(=O)=O)CC2)CCN1c1cccc(C(=O)N[C@H]2C3CC4CC2C[C@](O)(C4)C3)n1 [Example 201, N-((E)-5-hydroxyadamantan-2-yl)-6-((R)-2-methyl-4-(1-(methylsulfonyl)piperidin-4-yl)piperazin-1-yl)picolinamide] | 40% | 78% |  |
| C[C@@H]1CN(C2CC2)CCN1c1cccc(C(=O)N[C@H]2C3CC4CC2C[C@](O)(C4)C3)n1 [Example 196, 6-((R)-4-cyclopropyl-2-methylpiperazin-1-yl)-N-((E)-5-hydroxyadamantan-2-yl)picolinamide] | 64% | 86% |  |
| CC1(C)[C@@H](OC(=O)CCC(=O)O)CC[C@]2(C)[C@H]3C(=O)C=C4[C@@H]5C[C@@](C)(C(=O)O)CC[C@]5(C)CC[C@@]4(C)[C@]3(C)CC[C@@H]12 [Carbenoxolone] |  |  | improves insulin sensitivity |

Continued, in another order:

| inhibition at 10 µM [1] | inhibition at 100 µM [1] | Structure (SMILES) | effect on insulin sensitivity (11β-HSD1) |
| --- | --- | --- | --- |
| 42% | 78% | COc1ccc(N2CCN(c3nccc(C(=O)N[C@H]4C5CC6CC4C[C@](O)(C6)C5)n3)[C@H](C)C2)c(F)c1 [Example 231] |  |
| 81% | 87% | C[C@@H]1CN(c2ccc(C(C)(C)O)cc2)CCN1c1cccc(C(=O)N[C@H]2C3CC4CC2C[C@](O)(C4)C3)n1 [Example 173, N-((E)-5-hydroxyadamantan-2-yl)-6-((R)-4-(4-(2-hydroxypropan-2-yl)phenyl)-2-methylpiperazin-1-yl)picolinamide] |  |
| 75% | 85% | CNC(=O)c1cc(N2CCN(c3cccc(C(=O)N[C@H]4C5CC6CC4C[C@](O)(C6)C5)n3)[C@H](C)C2)ccc1OC [Example 151] |  |
| 76% | 87% | COc1ccc(N2CCN(c3cccc(C(=O)N[C@H]4C5CC6CC4C[C@](O)(C6)C5)n3)[C@H](C)C2)cc1C(N)=O [Example 150] |  |
| 48% | 79% | C[C@@H]1CN(c2ccc(N)nc2)CCN1c1cccc(C(=O)N[C@H]2C3CC4CC2C[C@](O)(C4)C3)n1 [Example 125, 6-((R)-4-(6-aminopyridin-3-yl)-2-methylpiperazin-1-yl)-N-((E)-5-hydroxyadamantan-2-yl)picolinamide] |  |
| 56% | 86% | C[C@H]1CN(c2ccc(S(C)(=O)=O)cc2F)CCN1c1nccc(C(=O)N[C@H]2C3CC4CC2C[C@](O)(C4)C3)n1 [Example 284] |  |
| 65% | 81% | COc1ccc(N2CCN(c3cccc(C(=O)N[C@H]4C5CC6CC4C[C@](O)(C6)C5)n3)[C@H](C)C2)cn1 [Example 119] |  |
| 76% | 89% | C[C@@H]1CN(c2ccc(OCC(N)=O)c(Cl)c2)CCN1c1cccc(C(=O)N[C@H]2C3CC4CC2C[C@](O)(C4)C3)n1 [Example 190, 6-((R)-4-(4-(2-amino-2-oxoethoxy)-3-chlorophenyl)-2-methylpiperazin-1-yl)-N-((E)-5-hydroxyadamantan-2-yl)picolinamide] |  |
| 73% | 87% | CS(=O)(=O)c1ccc(N2CCN(c3cccc(C(=O)N[C@H]4C5CC6CC4C[C@](O)(C6)C5)n3)CC2)cc1 [Example 77, N-((E)-5-hydroxyadamantan-2-yl)-6-(4-(4-(methylsulfonyl)phenyl)piperazin-1-yl)picolinamide] |  |
| 64% | 84% | COc1ccc(N2CCN(c3cccc(C(=O)N[C@H]4C5CC6CC4C[C@](O)(C6)C5)n3)[C@H](C)C2)nc1 [Example 118] |  |
| 41% | 76% | C[C@@H]1CN(S(C)(=O)=O)CCN1c1cccc(C(=O)N[C@H]2C3CC4CC2C[C@](O)(C4)C3)n1 [Example 204] |  |
| 54% | 85% | COc1ccc(N2CCCN(c3cccc(C(=O)N[C@H]4C5CC6CC4C[C@](O)(C6)C5)n3)CC2)c(F)c1 [Example 124] |  |
